In PubChem BioAssay (NCI):
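Following 48 hours of exposure in 96-well plates, responses at five concentrations were used to interpolate endpoints linearly. TGI is the concentration that stops growth completely.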

Assays:
Assay in all cases: NCI tumour cell line growth inhibition, 48 h
786-0 renal = tested on: 786-0 renal
A498 renal = tested on: A498 renal
A549 NSCLC = tested on: A549 NSCLC
ACHN renal = tested on: ACHN renal
CAKI-1 renal = tested on: CAKI-1 renal
CCRF-CEM leukemia = tested on: CCRF-CEM leukemia
COLO 205 colon = tested on: COLO 205 colon
DLD-1 colon = tested on: DLD-1 colon
DMS 114 small cell lung = tested on: DMS 114 small cell lung
DMS 273 small cell lung = tested on: DMS 273 small cell lung
EKVX NSCLC = tested on: EKVX NSCLC
HCC-2998 colon = tested on: HCC-2998 colon
HCT-116 colon = tested on: HCT-116 colon
HCT-15 colon = tested on: HCT-15 colon
HL-60(TB) leukemia = tested on: HL-60(TB) leukemia
HOP-18 NSCLC = tested on: HOP-18 NSCLC
HOP-62 NSCLC = tested on: HOP-62 NSCLC
HOP-92 NSCLC = tested on: HOP-92 NSCLC
HT29 colon = tested on: HT29 colon
IGROV1 ovarian = tested on: IGROV1 ovarian
K-562 leukemia = tested on: K-562 leukemia
KM12 colon = tested on: KM12 colon
KM20L2 colon = tested on: KM20L2 colon
LOX IMVI melanoma = tested on: LOX IMVI melanoma
LXFL 529 NSCLC = tested on: LXFL 529 NSCLC
M14 melanoma = tested on: M14 melanoma
M19-MEL melanoma = tested on: M19-MEL melanoma
MALME-3M melanoma = tested on: MALME-3M melanoma
MOLT-4 leukemia = tested on: MOLT-4 leukemia
NCI-H226 lung = tested on: NCI-H226 lung
NCI-H23 lung = tested on: NCI-H23 lung
NCI-H460 lung = tested on: NCI-H460 lung
NCI-H522 lung = tested on: NCI-H522 lung
OVCAR-3 ovarian = tested on: OVCAR-3 ovarian
OVCAR-4 ovarian = tested on: OVCAR-4 ovarian
OVCAR-5 ovarian = tested on: OVCAR-5 ovarian
OVCAR-8 ovarian = tested on: OVCAR-8 ovarian
RPMI-8226 leukemia = tested on: RPMI-8226 leukemia
RXF 393 renal = tested on: RXF 393 renal
RXF-631 renal = tested on: RXF-631 renal
SF-268 CNS = tested on: SF-268 CNS
SF-295 CNS = tested on: SF-295 CNS
SF-539 CNS = tested on: SF-539 CNS
SK-MEL-2 melanoma = tested on: SK-MEL-2 melanoma
SK-MEL-28 melanoma = tested on: SK-MEL-28 melanoma
SK-MEL-5 melanoma = tested on: SK-MEL-5 melanoma
SK-OV-3 ovarian = tested on: SK-OV-3 ovarian
SN12C renal = tested on: SN12C renal
SNB-19 CNS = tested on: SNB-19 CNS
SNB-75 CNS = tested on: SNB-75 CNS
SNB-78 CNS = tested on: SNB-78 CNS
SR leukemia = tested on: SR leukemia
SW-620 colon = tested on: SW-620 colon
TK-10 renal = tested on: TK-10 renal
U251 CNS = tested on: U251 CNS
UACC-257 melanoma = tested on: UACC-257 melanoma
UACC-62 melanoma = tested on: UACC-62 melanoma
UO-31 renal = tested on: UO-31 renal
XF 498 CNS = tested on: XF 498 CNS

COc1cc2c(cc1O)C(C)Cc1cc3c(cc1N(C)CC2)OCO3 (centres undefined) gave a TGI (786-0 renal) of 17.4 µM, a TGI (A498 renal) of 39.5 µM and a TGI (A549 NSCLC) of 32.6 µM. For the same molecule, the TGI (ACHN renal) was 74.1 µM, the TGI (CAKI-1 renal) was greater than 74.3 µM and the TGI (CCRF-CEM leukemia) was greater than 46.8 µM. It also gave a TGI (COLO 205 colon) greater than 58.8 µM, a TGI (DLD-1 colon) of 42.7 µM and a TGI (DMS 114 small cell lung) greater than 21.9 µM. For the same molecule, the TGI (DMS 273 small cell lung) was 13 µM, the TGI (EKVX NSCLC) was greater than 34.9 µM and the TGI (HCC-2998 colon) was 19.5 µM. The TGI (HCT-116 colon) was greater than 35.2 µM, the TGI (HCT-15 colon) was 42.7 µM and the TGI (HL-60(TB) leukemia) was greater than 58.8 µM. The TGI (HOP-18 NSCLC) was 90.9 µM, the TGI (HOP-62 NSCLC) was 36.8 µM and the TGI (HOP-92 NSCLC) was 18 µM. For the same molecule, the TGI (HT29 colon) was 29.7 µM, the TGI (IGROV1 ovarian) was 73.3 µM and the TGI (K-562 leukemia) was greater than 27.9 µM. The TGI (KM12 colon) was 17.8 µM, the TGI (KM20L2 colon) was 26.9 µM and the TGI (LOX IMVI melanoma) was 18.1 µM. It also gave a TGI (LXFL 529 NSCLC) greater than 95.6 µM, a TGI (M14 melanoma) of 19 µM and a TGI (M19-MEL melanoma) greater than 40.8 µM. It also gave a TGI (MALME-3M melanoma) of 20.1 µM, a TGI (MOLT-4 leukemia) of 36.5 µM and a TGI (NCI-H226 lung) of 19.3 µM. The TGI (NCI-H23 lung) was 20.3 µM, the TGI (NCI-H460 lung) was 37.7 µM and the TGI (NCI-H522 lung) was 4.94 µM. It also gave a TGI (OVCAR-3 ovarian) of 8.83 µM, a TGI (OVCAR-4 ovarian) greater than 65.2 µM and a TGI (OVCAR-5 ovarian) of 54.9 µM. It also gave a TGI (OVCAR-8 ovarian) of 37.5 µM, a TGI (RPMI-8226 leukemia) greater than 33.9 µM and a TGI (RXF 393 renal) of 9.48 µM. For the same molecule, the TGI (RXF-631 renal) was greater than 59 µM, the TGI (SF-268 CNS) was 36.2 µM and the TGI (SF-295 CNS) was 10.3 µM. For the same molecule, the TGI (SF-539 CNS) was 8.8 µM, the TGI (SK-MEL-2 melanoma) was 38.1 µM and the TGI (SK-MEL-28 melanoma) was 45.8 µM. It also gave a TGI (SK-MEL-5 melanoma) of 10 µM, a TGI (SK-OV-3 ovarian) of 22.8 µM and a TGI (SN12C renal) of 18.3 µM. For the same molecule, the TGI (SNB-19 CNS) was greater than 87.4 µM, the TGI (SNB-75 CNS) was 9 µM and the TGI (SNB-78 CNS) was 42.3 µM. The TGI (SR leukemia) was greater than 100 µM, the TGI (SW-620 colon) was greater than 56.4 µM and the TGI (TK-10 renal) was greater than 91.4 µM. For the same molecule, the TGI (U251 CNS) was 14.8 µM, the TGI (UACC-257 melanoma) was greater than 47.2 µM and the TGI (UACC-62 melanoma) was 12 µM. The TGI (UO-31 renal) was 37.8 µM and the TGI (XF 498 CNS) was 20.4 µM.
